Laboratory results as given in patent publication US20130171252A1, “Formulation Comprising a Type B Lantibiotic” (NOVACTA […], priority 2010, published 2013).
In brackets after ≈: the same amount, converted by molar mass. Where two headings read alike, the source gives them in different places.

What was measured:
C. diff strain 027Can = assay: MIC, agar dilution susceptibility testing, C. diff strain 027Can; format: cell-based, Clostridium difficile; conditions: Wilkins-Chalgren Anaerobe agar, anaerobic, 37° C., 48 hours, repeat determinations
Procedure: (§1) Susceptibility testing for Clostridium difficile strains was performed by two-fold serial antibiotic dilutions in Wilkins-Chalgren Anaerobe agar under anaerobic conditions. Vancomycin was included as a comparator drug. C. difficile cultures were inoculated onto pre-reduced Braziers (C.C.E.Y.) agar plates and grown at 37° C. for 48 hours under anaerobic conditions. Two to three colonies of the 48 hours cultures were inoculated into 5 ml of pre-reduced Schaedlers Broth and grown at 37° C. for 24 hours under anaerobic conditions. This culture was diluted with pre-reduced 0.9% NaCl to achieve the turbidity of the 0.5 McFarland standard and applied to the drug containing plates at a final inoculum of 10^5 cfu/spot. Drug-free growth control plates were included. The plates were incubated in the anaerobic chamber at 37° C. for 48 hours and examined for growth.

C. diff strain P59 = assay: MIC, agar dilution susceptibility testing, C. diff strain P59; format: cell-based, Clostridium difficile; conditions: Wilkins-Chalgren Anaerobe agar, anaerobic, 37° C., 48 hours
Procedure: as §1

C. diff strain E4 = assay: MIC, agar dilution susceptibility testing, C. diff strain E4; format: cell-based, Clostridium difficile; conditions: Wilkins-Chalgren Anaerobe agar, anaerobic, 37° C., 48 hours
Procedure: as §1

C. diff strain 630 = assay: MIC, agar dilution susceptibility testing, C. diff strain 630; format: cell-based, Clostridium difficile; conditions: Wilkins-Chalgren Anaerobe agar, anaerobic, 37° C., 48 hours, repeat determinations
Procedure: as §1

C. diff strain 027SM = assay: MIC, agar dilution susceptibility testing, C. diff strain 027SM; format: cell-based, Clostridium difficile; conditions: Wilkins-Chalgren Anaerobe agar, anaerobic, 37° C., 48 hours
Procedure: as §1

C. diff strain E101 = assay: MIC, agar dilution susceptibility testing, C. diff strain E101; format: cell-based, Clostridium difficile; conditions: Wilkins-Chalgren Anaerobe agar, anaerobic, 37° C., 48 hours
Procedure: as §1

C. diff strain B32 = assay: MIC, agar dilution susceptibility testing, C. diff strain B32; format: cell-based, Clostridium difficile; conditions: Wilkins-Chalgren Anaerobe agar, anaerobic, 37° C., 48 hours
Procedure: as §1

C. diff strain 19126 = assay: MIC, agar dilution susceptibility testing, C. diff strain 19126; format: cell-based, Clostridium difficile; conditions: Wilkins-Chalgren Anaerobe agar, anaerobic, 37° C., 48 hours, repeat determinations
Procedure: as §1

C. diff strain 37779 = assay: MIC, agar dilution susceptibility testing, C. diff strain 37779; format: cell-based, Clostridium difficile; conditions: Wilkins-Chalgren Anaerobe agar, anaerobic, 37° C., 48 hours, repeat determinations
Procedure: as §1

C. diff strain P24 = assay: MIC, agar dilution susceptibility testing, C. diff strain P24; format: cell-based, Clostridium difficile; conditions: Wilkins-Chalgren Anaerobe agar, anaerobic, 37° C., 48 hours
Procedure: as §1

C. diff strain E16 = assay: MIC, agar dilution susceptibility testing, C. diff strain E16; format: cell-based, Clostridium difficile; conditions: Wilkins-Chalgren Anaerobe agar, anaerobic, 37° C., 48 hours
Procedure: as §1

C. diff strain P49 = assay: MIC, agar dilution susceptibility testing, C. diff strain P49; format: cell-based, Clostridium difficile; conditions: Wilkins-Chalgren Anaerobe agar, anaerobic, 37° C., 48 hours
Procedure: as §1

C. diff strain P62 = assay: MIC, agar dilution susceptibility testing, C. diff strain P62; format: cell-based, Clostridium difficile; conditions: Wilkins-Chalgren Anaerobe agar, anaerobic, 37° C., 48 hours
Procedure: as §1

[1] = Example 2: solubility and dissolution behaviour from hard gelatin capsule in SGF; format: physicochemical; conditions: 50 mg in size 00 hard gelatin capsule, 10 mL SGF, 37° C.
Procedure: The solubility and dissolution behaviour of compound 1 contained in a hard gelatin capsule when suspended in simulated gastric fluid (SGF) has been monitored at 37° C.
Compound 1 (50 mg) was transferred into a size 00 hard gelatin capsule. This capsule represents the lowest dose that is likely to be administered in clinical trials. The capsule was dropped into 10 mL of SGF at 37° C. and the sample was intermittently swirled by hand. Dissolution was monitored visually and by HPLC over a one hour period. For the dissolution experiment monitored by HPLC, the sample was stirred continuously with a magnetic stirrer at 37° C. 100 ul samples were withdrawn from the dissolution experiment and were diluted with 900 ul water. The diluted sample was then centrifuged to remove solid material (mostly gelatin).

[2] = Example 3: solubility in SIF and SGF; format: physicochemical; conditions: target 40 mg/ml
Procedure: 10 mg of compound 1 was suspended in […] Simulated Intestinal Fluid (SIF), and was left on a shaker for 10 minutes, after which time suspension was observed. This was in contrast to an identical sample suspended in SGF which dissolved fully after the same period of time. This sample prepared at a target concentration of 40 mg/ml was centrifuged to remove sediment. The supernatant was then diluted to a target of 1 mg/ml with water and compound 1 content was compared against a 1 mg/mL standard prepared in 50% ethanol (aq) using a HPLC method of Example 2.

[3] = Dissolution testing of the capsule of Example 1 in simulated gastric fluid; format: physicochemical; conditions: hard gelatine capsule size 00, 50 mg compound 1, 10 mL SGF, 37° C., stirred
Procedure: A hard gelatine capsule (size 00) was opened into two segments and compound 1 (50 mg) was weighed into the larger segment. The capsule segment containing compound 1 was sealed by inserting and closing the smaller segment over the larger capsule section. A hard gelatine capsule (size 00) containing up to 500 mg can be prepared employing this method.
The capsule of Example 1 was dropped into a 10 mL of simulated gastric fluid (SGF) at 37° C. […] Samples of the solution/suspension (100 μL) were withdrawn at 1, 2, 3, 4, 5, 6, 7, 8, 9, 10, 15, 20, 25, 30 and 70 minutes after the addition of the capsule to SGF.
The samples were clarified using a bench top centrifuge to remove solid from the suspension. The clarified supernatants were diluted with 50% ethanol and then were analysed by HPLC.

[4] = Susceptibility to enzymatic digestion in simulated intestinal fluid (FIG. 1); format: in vitro ADME; conditions: 37° C., HPLC (FIG. 1)
Procedure: Nisin and the compound of compound 1 were tested for their susceptibility towards enzymatic digestion in the intestine using a simulated intestinal fluid (SIF). The SIF was based on the standard USP solutions for simulated intestinal fluids and its activity was confirmed against Bovine Serum Albumin (Hilger et al, Clin. Exp. Immunol. 2001, 123, 387-94). The compounds were incubated in SIF at 37° C. and their concentrations quantified by analytical HPLC (UV detection at 210 nm using the conditions outlined in Table 1).

[5] = Example 4: stability in SIF over 240 minutes (FIG. 4); format: in vitro ADME; conditions: 37° C., HPLC
Procedure: Compound 1 was incubated in SIF at 37° C. for up to 240 minutes. Aliquots were withdrawn from the test sample and diluted with water prior to analysis by HPLC (as described in Example 2). The compound 1 peak area was recorded and was expressed as a percentage with respect to the time zero sample.

Deoxyactagardine B (1,9-diaminononane) monocarboxamide [Compound 7]
MIC (C. diff strain 027Can; listed as Comp 7): 0.5 µg/mL

deoxyactagardine B [DAB]
MIC (C. diff strain P59): 2 µg/mL
MIC (C. diff strain E4): 2 µg/mL
MIC (C. diff strain 630): 4 µg/mL
MIC (C. diff strain 027SM): 2 µg/mL
MIC (C. diff strain E101): 2 µg/mL
MIC (C. diff strain B32): 2 µg/mL
MIC (C. diff strain 19126): 4 µg/mL
MIC (C. diff strain 027Can): 4 µg/mL
MIC (C. diff strain 37779): 4 µg/mL
MIC (C. diff strain P24): 2 µg/mL
MIC (C. diff strain E16): 2 µg/mL
MIC (C. diff strain P49): 2 µg/mL
MIC (C. diff strain P62): 2 µg/mL

CCC(C)[C@@H]1NC(=O)C2NC(=O)[C@H](CC(C)C)NC(=O)[C@H](NC(=O)[C@H]3CSC[C@H](N)C(=O)N[C@@H](CO)C(=O)NCC(=O)N[C@@H](Cc4c[nH]c5ccccc45)C(=O)N[C@@H](C(C)C)C(=O)N3)[C@H](C)SC[C@H](NC(=O)[C@H](CCC(=O)O)NC1=O)C(=O)NCC(=O)N[C@@H]1C(=O)N[C@@H](CC(C)C)C(=O)N[C@@H](C(C)C)C(=O)N[C@@H](CS[C@H]2C)C(=O)N[C@@H](C)C(=O)N[C@H](C(=O)NCCCCCCCN)CS[C@H]1C (stereo partly shown) [Compound 1, Deoxyactagardine B (1,7-diaminoheptane) monocarboxamide]
dissolution time in SGF [1]: ≤ 3 min
time in which the bulk dissolves in SGF [1]: less than 5 minutes
time to reach saturation dissolution in SGF ([1]; HPLC (FIG. 3)): 3 min
solubility at 10 min ([2]; SGF, 10 minutes on shaker, read-out: solubility in SGF): 40 mg/mL (≈ 20.1 mM)
solubility at 10 min ([2]; Simulated Intestinal Fluid (SIF), Simulated Intestinal Fluid pH 6.8, 10 minutes on shaker, supernatant by HPLC, read-out: solubility in SIF): < 0.8 mg/mL
time to complete release from the capsule into SGF [3]: ≤ 4 min
stability in SIF [4]: essentially stable
peak area as percentage with respect to the time zero sample [5]: no significant reduction
